Experimental data taken from PubChem BioAssay AID248 (DTP/NCI, 2004).
Values joined by “and” are separate entries in the source; they are usually repeats but may differ in a detail not shown here. Identical values can stand only once. Inconclusive results and toxic doses are left out. No stated cut-off is given here; in the data, active means T/C of 150% or more; inactive means T/C below 125%.

Test system: L1210 leukemia ip in BDF1 mice, survival T/C
Assay: NCI In Vivo Anticancer Drug Screen. Data for tumor model L1210 Leukemia (intraperitoneal) in B6D2F1 (BDF1) mice
Settings: endpoint: mean survival time, higher = longer survival
How it was run: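 Value reflects the ratio of survival in compound-treated mice to survival in vehicle-treated controls, with both groups carrying the same transplanted tumor.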

[1] = dose: 100.0 mg/kg/injection, schedule: Q04DX003 (ip), vehicle: Klucel (hydroxypropylcellulose) (HPC)
[2] = dose: 200.0 mg/kg/injection, schedule: Q04DX003 (ip), vehicle: Klucel (hydroxypropylcellulose) (HPC)
[3] = dose: 100.0 mg/kg/injection, schedule: Q04DX003 (ip), vehicle: saline with Tween-80
[4] = dose: 200.0 mg/kg/injection, schedule: Q04DX003 (ip), vehicle: saline with Tween-80
[5] = dose: 400.0 mg/kg/injection, schedule: Q04DX003 (ip), vehicle: saline with Tween-80

Measured: T/C

CCOc1ccccc1NC(=O)Nc1ccccc1
inactive: dose: 100.0 mg/kg/injection, schedule: Q01DX009 (ip), vehicle: Klucel (hydroxypropylcellulose) (HPC) 92 % of control | [1] 95 % of control | dose: 200.0 mg/kg/injection, schedule: Q01DX009 (ip), vehicle: Klucel (hydroxypropylcellulose) (HPC) 96 % of control | [2] 109 % of control | dose: 400.0 mg/kg/injection, schedule: Q01DX009 (ip), vehicle: Klucel (hydroxypropylcellulose) (HPC) 91 % of control | dose: 400.0 mg/kg/injection, schedule: Q04DX003 (ip), vehicle: Klucel (hydroxypropylcellulose) (HPC) 98 % of control

NC(=S)Nc1ccccn1
inactive: dose: 25.0 mg/kg/injection, schedule: Q01DX009 (ip), vehicle: saline with Tween-80 103 % of control | dose: 50.0 mg/kg/injection, schedule: Q01DX009 (ip), vehicle: saline with Tween-80 90 % of control | dose: 100.0 mg/kg/injection, schedule: Q01DX009 (ip), vehicle: saline with Tween-80 101 % of control | [3] 98 % of control

CCCCC#CC(=O)OCCC(C)C
inactive: [3] 94 % of control | [4] 90 % of control | [5] 94 % of control

CC(C)(C(N)=O)c1ccccc1
inactive: dose: 50.0 mg/kg/injection, schedule: Q01DX001 (ip), vehicle: saline 106 % of control | dose: 100.0 mg/kg/injection, schedule: Q01DX001 (ip), vehicle: saline 103 % of control | dose: 200.0 mg/kg/injection, schedule: Q01DX001 (ip), vehicle: saline 103 % of control | dose: 400.0 mg/kg/injection, schedule: Q01DX001 (ip), vehicle: saline 100 % of control

O=C(NCc1ccncc1)Nc1ccccc1Cl
inactive: dose: 100.0 mg/kg/injection, schedule: Q04DX002 (ip), vehicle: saline 97 % of control | dose: 200.0 mg/kg/injection, schedule: Q04DX002 (ip), vehicle: saline 87 % of control

Cc1ccc([NH-])cc1.Cc1ccc([NH-])cc1.[Cl][Pt+2][Cl]
inactive: dose: 6.25 mg/kg/injection, schedule: Q01DX009 (ip), vehicle: saline with Tween-80 101 % of control | dose: 12.5 mg/kg/injection, schedule: Q01DX009 (ip), vehicle: saline with Tween-80 95 % of control

CCOc1ccc(NC(=S)NC(=O)c2cccc3ccccc23)cc1
inactive: dose: 100.0 mg/kg/injection, schedule: Q01DX009 (ip), vehicle: saline 96 % of control | dose: 100.0 mg/kg/injection, schedule: Q04DX003 (ip), vehicle: saline 92 % of control | dose: 200.0 mg/kg/injection, schedule: Q01DX009 (ip), vehicle: saline 96 % of control | dose: 200.0 mg/kg/injection, schedule: Q04DX003 (ip), vehicle: saline 100 % of control | dose: 400.0 mg/kg/injection, schedule: Q01DX009 (ip), vehicle: saline 95 % of control | dose: 400.0 mg/kg/injection, schedule: Q04DX003 (ip), vehicle: saline 92 % of control

O=C1CCCC1CNCc1ccccc1 (stereo not given)
inactive: dose: 75.0 mg/kg/injection, schedule: Q01DX001 (ip), vehicle: saline 103 % of control | dose: 150.0 mg/kg/injection, schedule: Q01DX001 (ip), vehicle: saline 100 % of control

CCNC(Cc1ccccc1)c1ccc(OC)cc1 (stereo not given)
inactive: dose: 25.0 mg/kg/injection, schedule: Q01DX009 (ip), vehicle: Klucel (hydroxypropylcellulose) (HPC) 97 % of control | dose: 25.0 mg/kg/injection, schedule: Q04DX003 (ip), vehicle: Klucel (hydroxypropylcellulose) (HPC) 110 % of control | dose: 50.0 mg/kg/injection, schedule: Q01DX009 (ip), vehicle: Klucel (hydroxypropylcellulose) (HPC) 94 % of control | dose: 50.0 mg/kg/injection, schedule: Q04DX003 (ip), vehicle: Klucel (hydroxypropylcellulose) (HPC) 102 % of control | [1] 98 % of control and 102 % of control

C=C1CC(c2ccccc2)(c2cccs2)OC1=O (stereo not given)
inactive: [1] 98 % of control | [2] 96 % of control

COC(=O)CCC(=O)/C=C1/Nc2ccccc2C1=O
inactive: [3] 92 % of control | [4] 95 % of control | [5] 90 % of control

CCN1C(=O)C(CC)(Cc2ccccc2)C(=O)NC1=S (stereo not given)
inactive: dose: 75.0 mg/kg/injection, schedule: Q01DX001 (ip), vehicle: alkali diluted with saline 103 % of control | dose: 75.0 mg/kg/injection, schedule: Q01DX001 (ip), vehicle: other 108 % of control | dose: 150.0 mg/kg/injection, schedule: Q01DX001 (ip), vehicle: alkali diluted with saline 98 % of control | dose: 150.0 mg/kg/injection, schedule: Q01DX001 (ip), vehicle: other 105 % of control | dose: 300.0 mg/kg/injection, schedule: Q01DX001 (ip), vehicle: alkali diluted with saline 108 % of control | dose: 300.0 mg/kg/injection, schedule: Q01DX001 (ip), vehicle: other 103 % of control
